One molecule from patent US20050255071A1, “Preparation having improved therapeutic breadth comprising nucleotide synthesis inhibitors” (Aventis Pharma Deutschland GmbH, priority 1998, published 2005) can be followed below.

Molecules are shown by their SMILES. Read-outs that look alike come from different tables or passages of the source.

The nature of data set [1]: Alkaline phosphatase and amylase in adjuvant-arthritis rats (Example 3). As to conditions: rat, in vivo, po, 25 mg/kg. As for the experimental part:
(§1) The experimental animals used were male rats of a Lewis strain (Moellegard, Denmark) having a body weight of from 160 to 210 g. On the 1st day, the animals were injected subcutaneously, into the tail root, with complete Freund's adjuvant containing a Mycobacterium butyricum suspension in heavy paraffin oil (Difco, 6 mg/kg in paraffin oil, Merck). The compounds N-(4-trifluoromethylphenyl)-2-cyano-3-hydroxycrotonamide and colestyramine were suspended in carboxymethylcellulose (1% in water), and administered orally. The compounds were administered once daily from the 1st to the 17th day of the experiment; the paw volume and arthritis index were then determined on the 18th day.
The experimental conditions were analogous to Example 1. The actions of compound 1 and colestyramine on the amount on the of alkaline phosphatase (AP) and amylase were determined. Colestyramine was administered 4 hours later than compound 1.

Data set [2] is described as follows: GOT, GPT, RBC, HGB, HCT in adjuvant-arthritis rats (Example 2). As to conditions: rat, in vivo, po, 25 mg/kg. The procedure:
as §1
The experimental conditions were analogous to Example 1. The actions of compound 1 and colestyramine on the amount of red blood corpuscles (RBC), hemoglobin content (HGB), hematocrit (HCT), amount of glutamate oxlacetate transaminase (GOT), and glutamate pyruvate transaminase (GPT) were determined. Colestyramine was administered 4 hours later than compound 1.

A short description of data set [3]: Blood level and duration of action of compound 1 after time-displaced colestyramine. As to conditions: with time-displaced administration of colestyramine (2 hours or 4 hours after compound 1). The format is in vivo. From the text: The preparation according to the invention can also include compositions or combination packs in which the constituents are placed next to one another and can therefore be used simultaneously, separately, or sequentially on one and the same human or animal body. The sequential administration of a compound of formula (I) and/or (II) before the administration of a compound, which essentially prevents the enterohepatic circulation of a compound of formula (I) and (II), is preferred. To this end, for example, N-(4-trifluoromethylphenyl)-2-cyano-3-hydroxycrotonamide (called compound 1 in the following) is administered first. Colestyramine, which essentially prevents the enterohepatic circulation of compound 1, is administered with a displacement in time, i.e., 2 hours or 4 hours after the administration of compound 1. Because of the time-displaced administration of compound 1 relative to colestyramine, compound 1 is initially absorbed unhindered from the digestive tract. After the administration of colestyramine, which is not absorbed systemically, compound 1 excreted via the bowel is bound to colestyramine, and cannot therefore be reabsorbed again; as a result, an interruption to the enterohepatic circulation is brought about.

Data set [4] deals with Adjuvant-Induced Arthritis. The format is in vivo, rats. The procedure: Adjuvant-Induced Arthritis, Modification According to Perper (Proc. Soc. Exp. Biol. Med. 137, 506 (1971)).
as §1
The severity of the disorder was determined by measuring the paw volume of both hind paws. The measurement was carried out by means of the water displacement method using a 2060 Plethys monitor (Rhema-Labortechnik, Hofheim, Germany). The arthritis index was furthermore determined in the 18th day after injection.
Determination of the arthritis index was scored as follows:
On the first day, animals of an “arthritis control” control group were given a subcutaneous injection, into the tail root, with complete Freund's adjuvant but were given only the solvent (i.e., 1% cabrboxymethylcellulose in water). Six animals in each case were used per dose and in the control group. Untreated animals were employed as a further “healthy control” control group. The activity criteria used were the reduction of the increase in the paw volume and the decrease in the arthritis index, compared with the untreated control group, and the weight of the animals, in each case in percent and based on the arthritis control.
In the following table, N-(4-trifluoromethylphenyl)-2-cyano-3-hydroxycrotonamide is compound 1. Colestyramine was administered 4 hours later than compound 1.

[5] abbreviates: Example 1, 2.5 mg/kg of live weight oral once daily day 1-17, day 18.
The mark [6] stands for this setting: Example 1, 7.5 mg/kg of live weight oral once daily day 1-17, day 18.
Setting [7] is: Example 1, 25 mg/kg of live weight oral once daily day 1-17, day 18.
The mark [8] stands for this setting: Example 2, 25 mg/kg of live weight oral.
Where [9] appears, read: Example 3, 25 mg/kg of live weight oral.

As for `C/C(O)=C(\C#N)C(=O)Nc1ccc(C(F)(F)F)cc1` [Compound 1, N-(4-trifluoromethylphenyl)-2-cyano-3-hydroxycrotonamide], in data set [1], the AP was found to be 114.8 U/I and the Amylase was 1306.5 U/I. Besides, in data set [2], the GOT is on record as 85.3 U/I, the GPT was determined as 25.1 U/I, the HCT came to 18.7% and the HGB came to 6.1 g/dL. The RBC in data set [2] is 3.8 *10^6/mm^3. In data set [3], the “blood level of compound 1” value is “drastically reduced” and the duration of action entry is on record as “drastically reduced”. Besides, the “desired actions on the immune system” value in data set [4] (25 mg/kg/day of compound 1, with administration of colestyramine) is recorded as “retention”. In data set [4] (setting [5]), the Arthritis index is given as −77% and the “Paw Volume” value is on record as −63%. In data set [4] (setting [6]), the Arthritis index is −92% and the “Paw Volume” value is given as −83%. For the same molecule, in data set [4] (setting [7]), the Arthritis index is −100% and the “Paw Volume” value is −92%. Also, in data set [4] (setting [8]), the Arthritis index is −100% and the “Paw Volume” value was −92%. In data set [4] (setting [9]), the “Arthritis index” value is given as −100% and the Paw Volume is on record as −110%. The “activity in adjuvant arthritis” value in data set [4] (approximately 2.5 mg/kg/day of compound 1, with administration of colestyramine) is listed as “not reduced”.
